Source: ChEMBL document CHEMBL4431356, “Synthesis and activity of benzimidazole-1,3-dioxide inhibitors of separase” (Bioorg Med Chem Lett, 2016)

Experiments:
Separin [1] = target: T1, Separin (Homo sapiens, UniProt Q14674); assay: Inhibition of epitope-tagged separase (unknown origin) using Rad21-MCA as substrate preincubated for 1 hr followed by substrate addition measured after 3 hrs by fluorescence assay
Separin [2] = target: T1, Separin; assay: Inhibition of human ZZ TEV4-tagged separase expressed in human 293T cells using (Rad21)2-Rh110 as substrate preincubated for 1 hr followed by substrate addition measured after 3 hrs by fluorescence assay

T1 sequence (Q14674 whole entry): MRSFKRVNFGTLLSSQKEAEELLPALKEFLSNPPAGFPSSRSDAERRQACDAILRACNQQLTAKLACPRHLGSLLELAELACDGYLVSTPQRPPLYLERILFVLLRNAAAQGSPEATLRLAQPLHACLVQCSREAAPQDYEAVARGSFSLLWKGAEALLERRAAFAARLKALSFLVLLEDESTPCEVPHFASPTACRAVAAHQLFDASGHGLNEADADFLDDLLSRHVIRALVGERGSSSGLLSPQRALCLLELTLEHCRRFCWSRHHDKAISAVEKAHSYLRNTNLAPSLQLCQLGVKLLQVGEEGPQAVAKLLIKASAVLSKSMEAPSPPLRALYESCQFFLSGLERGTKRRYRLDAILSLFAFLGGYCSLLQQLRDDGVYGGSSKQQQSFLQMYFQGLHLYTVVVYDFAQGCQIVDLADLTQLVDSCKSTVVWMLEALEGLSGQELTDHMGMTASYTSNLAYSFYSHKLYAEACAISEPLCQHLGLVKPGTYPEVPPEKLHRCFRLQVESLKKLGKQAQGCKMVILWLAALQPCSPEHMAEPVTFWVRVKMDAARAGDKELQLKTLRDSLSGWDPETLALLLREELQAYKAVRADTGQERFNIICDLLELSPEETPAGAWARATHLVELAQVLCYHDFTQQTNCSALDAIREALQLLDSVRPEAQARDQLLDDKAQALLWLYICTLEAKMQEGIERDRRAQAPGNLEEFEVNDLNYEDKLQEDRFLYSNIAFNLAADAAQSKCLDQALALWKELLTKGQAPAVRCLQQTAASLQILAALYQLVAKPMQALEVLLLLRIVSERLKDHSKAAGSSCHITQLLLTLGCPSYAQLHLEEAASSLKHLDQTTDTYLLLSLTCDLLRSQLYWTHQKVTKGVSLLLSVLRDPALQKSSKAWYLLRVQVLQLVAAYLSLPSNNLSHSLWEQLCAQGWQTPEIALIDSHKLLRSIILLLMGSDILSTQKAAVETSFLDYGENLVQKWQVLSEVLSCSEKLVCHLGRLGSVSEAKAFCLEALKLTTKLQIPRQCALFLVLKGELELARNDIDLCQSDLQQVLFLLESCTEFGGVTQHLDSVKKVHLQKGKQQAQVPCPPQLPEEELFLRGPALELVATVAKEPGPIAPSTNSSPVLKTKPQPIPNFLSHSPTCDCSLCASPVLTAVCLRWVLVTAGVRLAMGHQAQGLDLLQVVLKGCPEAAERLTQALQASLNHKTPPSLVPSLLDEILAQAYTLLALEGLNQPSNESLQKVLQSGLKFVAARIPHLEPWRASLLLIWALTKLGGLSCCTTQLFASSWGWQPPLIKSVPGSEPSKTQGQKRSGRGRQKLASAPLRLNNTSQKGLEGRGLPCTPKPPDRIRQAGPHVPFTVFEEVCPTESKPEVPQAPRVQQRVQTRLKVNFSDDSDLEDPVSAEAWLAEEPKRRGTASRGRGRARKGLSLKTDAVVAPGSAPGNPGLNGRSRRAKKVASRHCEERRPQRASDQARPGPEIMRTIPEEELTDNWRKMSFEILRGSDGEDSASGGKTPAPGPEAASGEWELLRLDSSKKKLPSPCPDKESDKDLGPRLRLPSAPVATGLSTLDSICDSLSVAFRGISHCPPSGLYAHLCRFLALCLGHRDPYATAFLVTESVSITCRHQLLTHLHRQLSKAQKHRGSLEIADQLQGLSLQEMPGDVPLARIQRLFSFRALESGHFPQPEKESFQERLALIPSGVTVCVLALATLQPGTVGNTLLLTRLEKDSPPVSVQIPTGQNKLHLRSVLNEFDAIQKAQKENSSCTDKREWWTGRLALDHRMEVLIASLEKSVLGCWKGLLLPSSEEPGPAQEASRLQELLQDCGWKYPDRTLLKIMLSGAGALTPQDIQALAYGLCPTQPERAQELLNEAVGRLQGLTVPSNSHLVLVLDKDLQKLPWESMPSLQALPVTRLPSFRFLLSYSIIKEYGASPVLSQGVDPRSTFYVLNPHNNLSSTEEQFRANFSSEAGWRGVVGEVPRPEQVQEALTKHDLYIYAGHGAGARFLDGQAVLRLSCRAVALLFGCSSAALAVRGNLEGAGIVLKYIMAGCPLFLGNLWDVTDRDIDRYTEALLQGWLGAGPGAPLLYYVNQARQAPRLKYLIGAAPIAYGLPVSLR

SMILES | IC50 (Separin [1]) [µM] | IC50 (Separin [2]) [µM]
O=[N+]([O-])c1ccc2c(c1)=[N+]([O-])C1(CCCCC1)[N+]=2[O-] | 16.2 | 
CC1(C)[N+]([O-])=c2ccc(Br)cc2=[N+]1[O-] | > 100 | 
CC1(C)[N+]([O-])=c2ccc(C(F)(F)F)cc2=[N+]1[O-] | > 100 | 
CCOc1ccc2c(c1)=[N+]([O-])C(C)(C)[N+]=2[O-] | > 100 | 
CC1(C)[N+]([O-])=c2ccc(C(=O)O)cc2=[N+]1[O-] | > 100 | 
O=[N+]([O-])c1ccc2nonc2c1 | > 100 | 
CCOc1cc2c(cc1F)=[N+]([O-])C(C)(C)[N+]=2[O-] | > 100 | 
CC1(C)[N+]([O-])=c2ccc([N+](=O)[O-])cc2=[N+]1[O-] | 17.8 | 15
COC(=O)c1ccc2c(c1)[n+]([O-])c(C)c(C)[n+]2[O-] | > 100 | 
COC(=O)c1ccc2c(c1)=[N+]([O-])C(C)(C)[N+]=2[O-] | > 100 | 
CC1(C)[N+]([O-])=c2ccc(-c3ccccc3)cc2=[N+]1[O-] | > 100 | 
CC1(C)[N+]([O-])=c2ccc(F)cc2=[N+]1[O-] | > 100 | 
CCCCNc1ccc2c(c1)=[N+]([O-])C(C)(C)[N+]=2[O-] | > 100 | 
